In patent US7678789B2, “[1,2,4]-dithiazoli(di)ne derivatives, inducers of gluthathione-S-transferase and NADPH quinone oxido-reductase, for prophylaxis and treatment of adverse conditions associated with cytotoxicity in general and apoptosis in particular” (Solvay Pharmaceuticals B.V., priority 2005, dated 2010):

Assays:
[1] = tested on: gluthathione-S-transferase (GST, EC 2.5.1.18); test: Spectrophotometric determination of EC 2.5.1.18 (GST) induction in PC-12 cells; assay type: cell-based; conditions: Rat PC-12 cells, 24 hours incubation; negative logarithm of molar concentration causing 50% induction of enzyme activity; CDNB and GSH substrates
Description: Spectrophotometric Determination of EC 2.5.1.18 (GST) Induction
Rat PC-12 cells are incubated for 24 hours with a test compound. GST activity is measured using 1-chloro-2,4-dinitrobenzene (CDNB) and gluthathine (GSH) as substrates. The enzyme catalyses the reaction converting these substrates into S-(2,4-dinitrophenyl)glutathione, which product is measured spectrophotometrically at 340 nm. The effect of the test compound is expressed as pEC50: the negative logarithm of the molar concentration of the compound which causes 50% induction of the enzyme activity. Also the maximal percentage enzyme induction is determined. (see Drukarch et al. “Anethole dithiolethione prevents oxidative damage in gluthathione-depleted astrocytes”, Eur. J. Pharmacol. 329, 259-262, 1997).

[2] = tested on: NAD(P)H: oxidoreductase (NQO, EC 1.6.99.2); test: Spectrophotometric determination of EC 1.6.99.2 (NQO) induction in PC-12 cells; assay type: cell-based; conditions: Rat PC-12 cells, 24 hours incubation; negative logarithm of molar concentration causing same half maximal induction as reference compound D3T; menadione/MTT
Description: Spectrophotometric Determination of EC 1.6.99.2 (NQO) Induction
Rat PC-12 cells are incubated for 24 hours with a test compound. NAD(P)H: oxidoreductase (NQO, EC 1.6.99.2) activity is measured using menadione as substrate and MTT as readout compound. The formation of formazan from MTT is measured spectrophotometrically at 540 nm. The percentage stimulation (PS) relative to the maximal effect of the reference compound D3T is calculated. The maximal percentage stimulation with the concentration which induced the maximal percentage as condition and the pEA50 value (the negative logarithm of the molar concentration of the compound which caused the same half maximal induction of the enzyme activity as the reference compound D3T) are recorded (see Murphy et al., “Enhanced NAD(P)H:Quinone reductase activity defenses in neuronal cells prevents free radical-mediated damage”, J. Neurochem., 71 69-77, 1998 and Prochaska et al., Analytical Biochemistiy, 169, 328-336 1988).

melting point [°C] | GST pEC50 [1] | Compound | NQO pEA50 [2]
217 to 226 | 5.3 | Cc1cccc(N=c2nc(N3CCOCC3)ss2)c1 [Compound B5] | 5.7
81 to 82.5 | 5.2 | CCCCc1ccc(N=c2nc(N(C)C)ss2)cc1 [Compound A2] | 5.2
100 to 101.4 | 5.8 | CN=c1ssc(=Nc2ccccc2C)n1C [Compound C3] | 5.7
76.5 to 77.6 | 5.6 | CN=c1ssc(=Nc2cccc(F)c2)n1C [Compound C11] | 5.3
80 to 82 | 5.8 | CN=c1ssc(=Nc2ccccc2)n1C [Compound C2] | 6.2
170 to 171.5 | 5.4 | CN(C)c1nc(=Nc2ccc([N+](=O)[O-])cc2)ss1 [Compound A10] | 5.8
